Entries after “also recorded” stand apart in the source; their conditions may differ.

The target of one assay is T1, HLA-A2.1 molecules (Homo sapiens, UniProt P04439, D140Y/D185E/D98H/E176V/E277Q/G131W/G231S/I119V/I121R/I166T/I218V/L300P/L318F/N151K/N90K/P208A/P217A/Q86G/Q94H/R138H/R169H/T345S).
T1 construct: The T2 cell line is deficient in TAP1 and TAP2 transporter proteins and expresses low levels of HLA-A2.1; endogenous in cells; host or cells: T2 cell line (TAP1/TAP2-deficient)
The assay can be described thus: T2-binding assay. As to conditions: T2 cells; for binding capacity to HLA-A2.1 molecules: overnight with β2-microglobulin, anti-HLA-A2 staining. As to the method: T2-binding assay. Peptide binding capacity to HLA-A2.1 molecules was measured by using the T2 cell line according to a protocol previously described (Nijman et al., Eu. J. Immunol. 23:1215, 1993). T2 cells (3×10^5/well) were incubated overnight in 96-well plates with culture medium (1:1 mixture of RPMI 1640/EHAA containing 2.5% FBS, 100 U/ml penicillin, 100 μg/ml streptomycin) with 10 μg/ml β2-microglobulin (Sigma) and different concentrations of peptide. Cells were washed twice with cold PBS containing 2% FBS and incubated for 30 minutes at 4° C. with anti-HLA-A2.1 BB7.2 mAb ( 1/80 dilution from hybridoma supernatant). After washing, cells were stained with FITC-labeled goat anti-mouse Ig (PharMingen, San Diego, Calif.) and the level of HLA-A2.1 expression was measured by flow cytometry. HLA-A2.1 expression was quantified as fluorescence index (FI) according to the formula: FI=(mean fluorescence intensity with peptide-mean fluorescence intensity without peptide)/mean fluorescence intensity without peptide.

The next assay relates to A2K^b transgenic mice. The assay is described as follows: Immunization of A2K^b transgenic mice; murine CTL assay and intracellular IFN-γ staining. The format is in vivo. The conditions noted are these: for cross-reactivity of murine CD8^+ CTL induced with the peptide: recognition of wild-type TARP-29-37 and other peptides on pulsed targets: Jurkat-HLA-A2 targets pulsed with peptides; for frequency of CD8^+ T cells specific for the individual peptide, compared to wild-type TARP-29-37: mice immunized s.c. with peptide and cytokine in adjuvant, IFN-γ staining; for number of IFN-γ-producing CD8^+ T cells, of total CD8^+ T cells: mice immunized with peptide-pulsed DC, intracellular staining. As to the method:
Immunizations. A2K^b transgenic mice were immunized with syngeneic peptide-loaded dendritic cells (DC), plasmid DNA expressing TARP, or the mixture of peptide and cytokine in incomplete Freund's adjuvant (IFA). For DC immunization, DC were pulsed with 10 μM peptide in serum-free RPMI for 2 hours at 37° C., and then mice were immunized subcutaneously (s.c.) with 1-3×10^5 DC without washing. DC were prepared from bone marrow as previously described (Celluzzi et al. J. Exp. Med. 183:283, 1996). Alternatively, mice were immunized intramuscularly with 100 μg plasmid DNA, pcDNA5/FRT/TARP, generated by inserting the TARP DNA into the pcDNA5/RFT (Invitrogen, Carlsbad, Calif.) vector. Mice were also immunized subcutaneously (s.c.) in the base of the tail with 100 μl of an emulsion containing 1:1 IFA and PBS with antigens and cytokines (50 nmol CTL epitope, 50 nmol HBV core 128-140 helper epitope, 3 μg of IL-12, and 5 μg of granulocyte macrophage colony stimulating factor (GM-CSF). IFA and cytokines were purchased from Sigma and Peptotech (Rocky Hill, N.J.), respectively.
(§1) CTL assay. For murine CTL, CD8^+ T cells from the immunized mice were restimulated with peptide-loaded splenocytes for one week as previously described (Oh et al., J Immunol 170:2523, 2003), and then applied to 5 hour ^51Cr release assays. Target cells were labeled with ^51Cr first and washed twice. Cells were then pulsed with peptides for 2 hours and used as target cells without further washing. For human CTL, target cells were also labeled with ^51Cr first, and then loaded with peptides. In the CTL assay against human tumor cells, target cells were incubated in the complete medium containing 1000 units/ml IFN-γ for 72 hours. The mean of triplicate samples was calculated, and the percentage of specific lysis was determined using the following formula: Percentage of specific lysis=100×[(experimental ^51Cr release−control ^51Cr release)/(maximum ^51Cr release−control ^51Cr release)]. The maximum release refers to counts from targets in 2.5% Triton X-100.
Antibody and flow cytometry. FITC-labeled anti-mouse CD8 (53-6.7), CD11c, CD80 (B7-1), CD54 (ICAM-1), anti-human CD8 (RPA-T8), CD14 (M5E2), CD80 (B7-1), and CD86 (B7-2) were used for staining of cell surface molecules. For intracellular IFN-γ staining, cells were stained by following the manufacturer's protocol. All Abs and reagents were purchased from PharMingen. For flow cytometric analysis of cell surface, 5×10^5 cells were washed and resuspended in PBS containing 0.2% BSA and 0.1% sodium azide. Cells were incubated on ice with the appropriate antibody for 30 minutes and then washed. Samples were analyzed on a FACScan (BD Biosciences, Mountain View, Calif.). Background staining was assessed by use of an isotype control antibody. For tetramer staining, cells were incubated with FITC-labeled anti-CD8 for 10 minutes, and then stained with tetramers.

Assay [1] relates to peptide-pulsed C1R-A2.1 target cells. The assay is described as follows: Human CTL 5-hour ^51Cr release assay on peptide-pulsed targets. The format is cell-based. The conditions noted are these: for cross-reactivity of human CD8^+ CTL raised with the peptide to other peptides (wild-type TARP-29-37, enhanced epitopes): C1R-A2.1 targets pulsed with 10 μM peptides; for peptide concentration at which CTLs specific for TARP-29-37-9V recognize targets pulsed with the named peptide (avidity): label = peptide pulsed on targets, effector = TARP-29-37-9V-specific human CTL. As to the method:
(§2) In vitro human CD8^+ T cell priming with DC. Elutriated monocytes and lymphocytes were obtained from HLA-A2.1-positive patients or normal donors. To prepare DC, monocytes were cultured at 10^6 cells/ml in complete medium containing human IL-4 (1000 units/ml) and human GM-CSF (1000 units/ml). On day 2 and 4, half of the media was exchanged. To mature the DC, CD40 ligand trimer (Immunex, Seattle, Wash.) was added at 1 μg/ml on day 4 or 5, and then further cultured for 2 or 3 days. Cells were harvested on day 7, and then pulsed with 10 μM of peptides for 2 hours before γ-irradiation. 1×10^5 peptide-pulsed DC and 2×10^6 autologous CD8^+ T cells were mixed and cultured in 24-well plates. 10 units/ml IL-2 was added on day 2 during restimulation. Cells were restimulated every 7-9 days approximately 4-7 cycles.
as §1

In another assay the test system is MCF-7. The assay is described as follows: CTL assay against human tumor cells (MCF-7). The format is cell-based. The conditions noted are these: 50:1 E/T ratio, targets pre-incubated with IFN-γ 72 hours. As to the method:
as §2, §1

Another assay has as its system CD8^+ T cells. The assay can be described thus: In vitro human CD8^+ T cell priming with peptide-pulsed DC. The format is cell-based. As to conditions: CD8^+ T cells of an HLA-A2.1-positive prostate cancer patient, peptide-pulsed autologous DC. Here is the method:
as §2

With “FVFLRNFSL (listed as Homo sapiens) [TARP-27-35]”, in the assay with HLA-A2.1 molecules, the “binding affinity to HLA-A2.1 molecules compared with another peptide” value is on record as “almost a ten-fold higher binding affinity” and the “binding capacity to HLA-A2.1 molecules” value is given as “showed measurable binding capacity”. In the assay with A2K^b transgenic mice (^51Cr release), the “cross-reactivity of murine CD8^+ CTL induced with the peptide: recognition of wild-type TARP-29-37 and other peptides on pulsed targets” value is on record as “did not recognize TARP-29-37”. In the assay with A2K^b transgenic mice, the “frequency of CD8^+ T cells specific for the individual peptide, compared to wild-type TARP-29-37” value was “higher frequency of CD8^+ CTL specific for the peptide” and the “number of IFN-γ-producing CD8^+ T cells, of total CD8^+ T cells” value was 2.1%. In assay [1] (C1R-A2.1 targets), the “cytolytic activity of human CD8^+ CTL raised with the peptide against targets pulsed with the corresponding peptide” value is reported as “higher levels of cytolytic activity against the corresponding peptides; also recorded: lysed TARP-27-35-pulsed target cells”. In addition, the “cross-reactivity of human CD8^+ CTL raised with the peptide to other peptides (wild-type TARP-29-37, enhanced epitopes)” value in assay [1] was “poorly recognized other peptide/MHC complexes tested; also recorded: did not recognize other peptides as much as they did the immunogens”. Further, in the assay on MCF-7, the “lytic activity against MCF-7 of CD8^+ CTL specific for the peptide” value was “higher lytic activity against MCF-7; also recorded: could kill human tumor cells as well”.
As to “TARP-27-35-9V: TARP-27-35 substituted at position 9 with Val (FVFLRNFSV; listed as Homo sapiens)”, the “binding affinity to HLA-A2.1 molecules compared with another peptide” value with HLA-A2.1 molecules was “did not alter the binding affinity of the wild-type peptide”.
For “TARP-2-9: amino acids 2-9 of SEQ ID NO: 1 (QMFPPSPL; listed as Homo sapiens)”, the “binding capacity to HLA-A2.1 molecules” value with HLA-A2.1 molecules is “Neither TARP-2-9 nor TARP-22-30 showed any measurable binding affinity”.
Consider “TARP-27-35-2L: TARP-27-35 substituted at position 2 with Leu (FLFLRNFSL; listed as Homo sapiens)”, for which the “binding affinity to HLA-A2.1 molecules compared with another peptide” value with HLA-A2.1 molecules is “did not alter the binding affinity of the wild-type peptide”.
Take “FLRNFSLML (listed as Homo sapiens) [TARP-29-37]”: the “binding capacity to HLA-A2.1 molecules” value with HLA-A2.1 molecules was “showed measurable binding capacity”. In the assay on A2K^b transgenic mice (mice immunized with peptide-pulsed DC or plasmid DNA expressing TARP), the “peptide-specific CD8^+ T cell responses (CTL)” value is recorded as “lower peptide-specific CD8^+ T cell responses”. In addition, the “number of IFN-γ-producing CD8^+ T cells, of total CD8^+ T cells” value with A2K^b transgenic mice is reported as “significant number of CD8^+ T cells producing IFN-γ”. Besides, the “recognition of TARP-27-35 by human CTL raised with the peptide” value in assay [1] (C1R-A2.1 targets) is “to some extent”. In addition, in assay [1], the “cross-reactivity of human CD8^+ CTL raised with the peptide to other peptides (wild-type TARP-29-37, enhanced epitopes)” value is “could recognize and lyse target cells pulsed with the wild-type as well as the two enhanced epitopes; also recorded: killed the wild-type peptide (TARP-29-37, SEQ ID NO: 5)-pulsed target cells efficiently; also recorded: could recognize all four peptide/MHC complexes”; the “peptide concentration at which CTLs specific for TARP-29-37-9V recognize targets pulsed with the named peptide (avidity)” value is reported as “only slightly lower avidity”.
As for “TARP-22-30: amino acids 22-30 of SEQ ID NO: 1 (RLEHTFVFL; listed as Homo sapiens)”, the “binding capacity to HLA-A2.1 molecules” value with HLA-A2.1 molecules is reported as “Neither TARP-2-9 nor TARP-22-30 showed any measurable binding affinity”.
Regarding “FLRNFSLMV (TARP peptide with a L9V substitution.) [TARP-29-37-9V]”, the “binding affinity to HLA-A2.1 molecules compared with another peptide” value with HLA-A2.1 molecules was “lower binding affinity to HLA-A2.1 than TARP-29-37-3A; also recorded: did enhance the binding affinity of wild-type peptide”. Also, in the assay with CD8^+ T cells, the “cycles of in vitro restimulation needed to detect peptide-specific CD8^+ T cells” value is “at least five cycles”. Moreover, in the assay on A2K^b transgenic mice (^51Cr release), the “cross-reactivity of murine CD8^+ CTL induced with the peptide: recognition of wild-type TARP-29-37 and other peptides on pulsed targets” value was “slightly more potent in killing targets pulsed with wild-type TARP-29-37; also recorded: most immunogenic of the peptides in inducing CTLs specific for the wild-type sequence”; the “killing of target cells pulsed with TARP-27-35 by murine CTL induced with the peptide” value was “could also kill target cells pulsed with TARP-27-35”. Also, the “frequency of CD8^+ T cells specific for the individual peptide, compared to wild-type TARP-29-37” value in the assay on A2K^b transgenic mice is listed as “almost two-fold higher frequencies of CD8^+ T cells; also recorded: higher level of CD8^+ T cell responses than TARP-29-37”. In addition, in assay [1] (C1R-A2.1 targets), the “recognition of TARP-27-35 by human CTL raised with the peptide” value is listed as “to some extent”. For the same substance, in assay [1], the “cross-reactivity of human CD8^+ CTL raised with the peptide to other peptides (wild-type TARP-29-37, enhanced epitopes)” value was “could recognize both wild-type and TARP-29-37-3A comparably; also recorded: killed the wild-type peptide (TARP-29-37, SEQ ID NO: 5)-pulsed target cells efficiently; also recorded: to a similar degree to the immunogen”; the “peptide concentration at which CTLs specific for TARP-29-37-9V recognize targets pulsed with the named peptide (avidity)” value amounted to 0.001 µM. The “lytic activity against MCF-7 of CD8^+ CTL specific for the peptide” value with MCF-7 was “higher lytic activity against MCF-7; also recorded: could kill human tumor cells”.
For the substance “substitution with Ala at position 3 in TARP-27-35: TARP-27-35 with Phe at position 3 replaced by Ala (FVALRNFSL; listed as Homo sapiens)”, the “binding capacity to HLA-A2.1 molecules” value with HLA-A2.1 molecules is given as “no binding of the peptide to HLA-A2.1 molecules”.

(Values after patent publication US8043623B2, “Immunogenic peptides for the treatment of prostate and breast cancer” (The Government of the United States of America as …, priority 2003, dated 2011).)
